SMILES strings stand for the structures. *1 amine or outer side, *2 acyl side, *3 side chain or, on linkers, in order; H or OH if unused. Where a SMILES comes first, the peptide text is derived from it. Side-chain parts run from the residue outwards. [ ]: non-standard residue; d: D form. The star is where a group is joined. C20 diacid = O=C(O)CCCCCCCCCCCCCCCCCCC(=O)*; X73 = CC(C)(C(=S)NCCC(=O)*)c1ccc(F)c(F)c1; γGlu = O=C(O)[C@H](CCC(=O)[*:2])N[*:1]; AEEA = NCCOCCOCC(=O)O; Aib = CC(C)(N)C(=O)O

Common to all, as to type: cell-based
Experiment [1] has as its target T1, GLP-1 receptor (Homo sapiens, UniProt P43220). Nature of the experiment: HitHunter cAMP assay, GLP-1 receptor. The following applies: for EC50: CHO cells stably expressing human GLP-1 receptor, cAMP accumulation, 30 min, read-out: EC50 GLP-1R; for Emax: CHO cells, cAMP, normalized to maximum signal from GLP-1 (high) and DMSO (low), read-out: Emax GLP-1R. (In general: Changes in cAMP serve as a functional read-out for many G protein-coupled receptors.)

The target in experiment [2] is T1, GLP-1 receptor. Nature of the experiment: PathHunter β-arrestin assay, GLP-1 receptor. Further details: host or cells: PathHunter CHO-K1 GLP1R β-Arrestin Cell Line. To be noted: β-arrestin-2 recruitment, PathHunter CHO-K1 GLP1R β-Arrestin Cell Line, 90 min at 37° C.; normalized to GLP-1; read-out: GLP-1R β Arrestin EC50.
Experiment [3] concerns the target T2, GIP receptor (Homo sapiens, UniProt P48546).
T2 sequence (P48546 22-466): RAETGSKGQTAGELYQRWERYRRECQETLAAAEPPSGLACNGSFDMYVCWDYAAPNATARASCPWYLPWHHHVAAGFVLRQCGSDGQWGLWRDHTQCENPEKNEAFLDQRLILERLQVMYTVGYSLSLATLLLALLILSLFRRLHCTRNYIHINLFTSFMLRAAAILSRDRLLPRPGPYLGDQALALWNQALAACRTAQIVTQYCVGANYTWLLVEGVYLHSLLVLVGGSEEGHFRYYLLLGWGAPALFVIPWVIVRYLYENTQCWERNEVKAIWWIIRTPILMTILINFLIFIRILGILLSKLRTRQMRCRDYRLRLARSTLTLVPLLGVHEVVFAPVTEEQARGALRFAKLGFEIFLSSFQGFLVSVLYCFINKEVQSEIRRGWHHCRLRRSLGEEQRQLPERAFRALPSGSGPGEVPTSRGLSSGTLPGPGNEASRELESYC
Nature of the experiment: HitHunter cAMP assay, GIP receptor. The following applies: for EC50: CHO cells stably expressing GIP receptor, cAMP accumulation, 30 min, read-out: EC50 GIP-1R; for Emax: CHO cells, cAMP, normalized to maximum signal from GIP (high) and DMSO (low), read-out: Emax GIP-1R.

Experiment [4] deals with T2, GIP receptor. The experiment in a line: PathHunter β-arrestin assay, GIP receptor. Further details: host or cells: PathHunter CHO-K1 GIPR β-Arrestin Cell Line. To be noted: β-arrestin-2 recruitment, PathHunter CHO-K1 GIPR β-Arrestin Cell Line, 90 min at 37° C.; normalized to GIP; read-out: GIPR β Arrestin EC50. On the technique in general: Activated receptors often draw arrestin, which recruitment assays turn into a signal.

T1 sequence (P43220 24-463): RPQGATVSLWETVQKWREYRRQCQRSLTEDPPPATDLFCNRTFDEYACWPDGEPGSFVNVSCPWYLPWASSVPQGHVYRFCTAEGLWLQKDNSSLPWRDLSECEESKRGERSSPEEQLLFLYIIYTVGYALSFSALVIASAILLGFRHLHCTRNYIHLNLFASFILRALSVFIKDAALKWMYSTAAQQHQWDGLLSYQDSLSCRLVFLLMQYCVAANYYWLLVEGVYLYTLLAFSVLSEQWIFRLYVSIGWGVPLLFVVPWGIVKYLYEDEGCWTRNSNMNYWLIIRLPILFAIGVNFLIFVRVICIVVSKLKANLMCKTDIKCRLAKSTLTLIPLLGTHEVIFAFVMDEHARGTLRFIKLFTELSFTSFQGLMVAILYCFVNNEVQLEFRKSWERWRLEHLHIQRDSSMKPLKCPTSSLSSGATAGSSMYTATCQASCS

As usually defined, the EC50 is the concentration giving half of the maximal effect. As usually defined, the Emax is the maximal effect, on the per cent scale that the assay sets. Regarding `CC[C@H](C)[C@H](NC(=O)[C@H](CC(C)C)NC(=O)[C@H](Cc1c[nH]c2ccccc12)NC(=O)[C@H](CCC(N)=O)NC(=O)[C@@H](NC(=O)[C@H](Cc1ccccc1)NC(=O)[C@H](C)NC(=O)[C@H](CCCCNC(=O)COCCOCCNC(=O)COCCOCCNC(=O)CC[C@H](NC(=O)CCCCCCCCCCCCCCCCCCC(=O)O)C(=O)O)NC(=O)[C@H](CCC(N)=O)NC(=O)[C@H](C)NC(=O)[C@@H](NC(=O)[C@H](CCCCN)NC(=O)[C@H](CC(=O)O)NC(=O)[C@H](CC(C)C)NC(=O)C(C)(C)NC(=O)[C@@H](NC(=O)[C@H](CO)NC(=O)[C@H](Cc1ccc(O)cc1)NC(=O)[C@H](CC(=O)O)NC(=O)[C@H](CO)NC(=O)[C@@H](NC(=O)[C@H](Cc1ccccc1)NC(=O)[C@@H](NC(=O)CNC(=O)[C@H](CCC(=O)O)NC(=O)CCNC(=S)C(C)(C)c1ccc(F)c(F)c1)[C@@H](C)O)[C@@H](C)O)[C@@H](C)CC)[C@@H](C)CC)C(C)C)C(=O)N[C@@H](C)C(=O)NCC(=O)NCC(=O)N1CCC[C@H]1C(=O)N[C@@H](CO)C(=O)N[C@@H](CO)C(=O)NCC(=O)N[C@@H](C)C(=O)N1CCC[C@H]1C(=O)N1CCC[C@H]1C(=O)N1CCC[C@H]1C(=O)N[C@@H](CO)C(N)=O` [Compound 137] (X73-EGTFTSDYSI[Aib]LDKIAQK([AEEA-AEEA-γGlu-C20 diacid])AFVQWLIAGGPSSGAPPPS-NH2), the EC50 on GLP-1 receptor [1] is 0.1 to 1 nM; at GLP-1 receptor [2], over 1000 nM; at GIP receptor [3], 10 to 100 nM; on GIP receptor [4] it was over 1000 nM. Besides, the Emax on GLP-1 receptor [1] worked out at 99%; on GIP receptor [3], 87%.

With `CC[C@H](C)[C@H](NC(=O)[C@H](CO)NC(=O)[C@H](Cc1ccc(O)cc1)NC(=O)[C@H](CC(=O)O)NC(=O)[C@H](CO)NC(=O)[C@@H](NC(=O)[C@H](Cc1ccccc1)NC(=O)[C@@H](NC(=O)CNC(=O)[C@H](CCC(=O)O)NC(=O)CCNC(=O)[C@]1(c2ccccc2)CNC(=O)C1)[C@@H](C)O)[C@@H](C)O)C(=O)N[C@@H](Cc1ccc(O)cc1)C(=O)N[C@@H](CC(C)C)C(=O)N[C@@H](CC(=O)O)C(=O)N[C@@H](CCCCN)C(=O)N[C@@H](CCC(N)=O)C(=O)N[C@@H](C)C(=O)N[C@@H](C)C(=O)NC(C)(C)C(=O)N[C@@H](CCC(=O)O)C(=O)N[C@@H](Cc1ccccc1)C(=O)N[C@H](C(=O)N[C@@H](CCCCNC(=O)COCCOCCNC(=O)COCCOCCNC(=O)CC[C@H](NC(=O)CCCCCCCCCCCCCCCCCCC(=O)O)C(=O)O)C(=O)N[C@@H](Cc1c[nH]c2ccccc12)C(=O)N[C@@H](CC(C)C)C(=O)N[C@@H](CC(C)C)C(=O)N[C@@H](C)C(=O)NCC(=O)NCC(=O)N1CCC[C@H]1C(=O)N[C@@H](CO)C(=O)N[C@@H](CO)C(=O)NCC(=O)N[C@@H](C)C(=O)N1CCC[C@H]1C(=O)N1CCC[C@H]1C(=O)N1CCC[C@H]1C(=O)N[C@@H](CO)C(N)=O)C(C)C` (single isomer, unassigned) [Compound 102], the EC50 on GLP-1 receptor [1] was 0.1 to 1 nM; at GLP-1 receptor [2], over 1000 nM; at GIP receptor [3], 1 to 10 nM; on GIP receptor [4], over 1000 nM. Also, the Emax on GLP-1 receptor [1] was found to be 91%; at GIP receptor [3] it was 101%.

Values taken from patent US12281149B2, “Modulators of G-protein coupled receptors” (priority 2021, dated 2025).
